# Read-outs that look alike come from different tables or passages of the source.
# Tests used:
# [1] = system: hyperglycemic rats; settings: type 2 diabetes model; cited from earlier work
# [2] = biological target: T1, ETA (Homo sapiens, UniProt P25101); settings: Lip (2001); cited from earlier work
# T1 sequence (P25101 21-427): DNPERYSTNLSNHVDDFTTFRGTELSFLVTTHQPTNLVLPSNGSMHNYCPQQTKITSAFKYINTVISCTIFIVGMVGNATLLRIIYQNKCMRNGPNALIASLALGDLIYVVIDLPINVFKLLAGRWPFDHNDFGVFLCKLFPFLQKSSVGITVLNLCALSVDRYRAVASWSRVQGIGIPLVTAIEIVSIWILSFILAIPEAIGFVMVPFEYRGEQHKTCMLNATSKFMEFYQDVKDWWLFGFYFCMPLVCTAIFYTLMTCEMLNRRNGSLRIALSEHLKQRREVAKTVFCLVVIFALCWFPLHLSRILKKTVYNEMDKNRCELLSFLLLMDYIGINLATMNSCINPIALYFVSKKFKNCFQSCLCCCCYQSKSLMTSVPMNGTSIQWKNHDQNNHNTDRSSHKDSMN
# [3] = system: rats with streptozotocin-induced diabetes; settings: 100 mg/kg/day; cited from earlier work
# [4] = system: streptozotocin-induced diabetes in rats; settings: 100 mg/kg/day; cited from earlier work
# [5] = system: obese mice; settings: 50 mg/kg/day; cited from earlier work
# [6] = system: moderate hypertension; settings: patients, 10 to 100 mg/day, by comparison with placebo; cited from earlier work
# [7] = system: resistant hypertension; settings: Myogen news release Aug. 18, 2005; cited from earlier work
# [8] = biological target: T1, ETA; assay: 125I-endothelin-1 receptor binding cold ligand competition, steady-state, human myocardial membranes; set-up: human myocardial membranes prepared from failing and non-failing left ventricles; from tissue; host or cells: human left-ventricular myocardium (failing and non-failing), membrane preparation; settings: mean of 8 assays
# [9] = system: rat model of insulin resistance; settings: rats, 5 mg/kg/day, cited from earlier work
# [10] = biological target: T1, ETA; assay: ETA affinity reported by Riechers et al (1996); assay type: binding; settings: calculated from the Riechers et al (1996) data
smiles,measurement,setting,value
COC(c1ccccc1)(c1ccccc1)[C@H](Oc1nc(C)cc(C)n1)C(=O)O [BSF 208075],plasma glucose levels,[1],reduced
"COc1cc(OC)nc(O[C@H](C(=O)O)C(OC)(c2ccccc2)c2ccccc2)n1 [darusentan, (+)-(S)-2-[(4,6-dimethoxy-2-pyrimidinyl)oxy]-3-methoxy-3,3-diphenylpropionic acid]",selectivity Ki(ETB)/Ki(ETA),[2],about 160
same,glomerular matrix protein deposition,[3],normalized
same,serum glucose concentrations,[3],neither compound was found to influence
same,plasma glucose levels,[4],unaffected
same,"renal effects of streptozotocin-induced diabetes, including increased glomerular diameter and deposition of eosinophilic material within the glomeruli",[4],partially or fully reversed
same,increase in body weight,[5],completely prevented
same,DBP,[6],significantly reduce
same,SBP,[6],significantly reduce
same,results of clinical trial DAR-201,[7],positive results
same,Ki(ETB)/Ki(ETA),[8],1181±148
CCCCN(CCCC)C(=O)CN1C[C@H](c2ccc3c(c2)OCO3)[C@@H](C(=O)O)[C@@H]1c1ccc(OC)cc1 [atrasentan],ΔAUC for glucose,[9]; meal tolerance test,significantly reduce
same,ΔAUC for glucose-insulin index,[9]; meal tolerance test,significantly reduce
same,ΔAUC for insulin,[9]; meal tolerance test,significantly reduce
same,3-hour fasting glucose level,[9],not
same,3-hour fasting insulin level,[9],significantly reduce
"COc1cc(OC)nc(OC(C(=O)O)C(OC)(c2ccccc2)c2ccccc2)n1 (racemic) [racemate, 2-(4,6-dimethoxypyrimidin-2-yloxy)-3-methoxy-3,3-diphenylpropionic acid]",selectivity Ki(ETB)/Ki(ETA),[10],about 62

# — patent publication US9592231B2, “Therapy for complications of diabetes” (AbbVie Deutschland GmbH & Co. KG, priority 2007, dated 2017)
